18 compounds from PubChem BioAssay (NCI) can be followed below.

What all share (experiment): NCI-60 cell line screen, 48 h
Experiment [1] relates to A498 renal.
Experiment [2] concerns CCRF-CEM leukemia.
The test system of experiment [3] is HCT-116 colon.
Experiment [4] deals with HL-60(TB) leukemia.
Experiment [5] concerns HOP-92 NSCLC.
Experiment [6] concerns KM12 colon.
Experiment [7] concerns LOX IMVI melanoma.
Experiment [8] concerns NCI-H460 lung.
The subject of experiment [9] is OVCAR-5 ovarian.
Experiment [10] relates to OVCAR-8 ovarian.
For experiment [11], the system named is RXF 393 renal.
Experiment [12] has as its system SF-539 CNS.
In experiment [13] the test system is SK-MEL-28 melanoma.
For experiment [14], the system named is SNB-75 CNS.
Experiment [15] has as its system U251 CNS.
Experiment [16] has as its system CAKI-1 renal.
Experiment [17] concerns MDA-N.
Experiment [18] has as its system DU-145 prostate.

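Following 48 hours of exposure in 96-well plates, responses at five concentrations were used to interpolate endpoints linearly. TGI: total growth inhibition.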

As to `COC(=O)N/N=C(\Cc1ccccc1)CN(C)C`, the TGI in experiment [1], in [2], in experiment [3], in experiment [4], in [5] and in experiment [6] was > 100 µM in each case. The TGI in [7], in experiment [8], in [9], in [10], in [11] and in [12] was > 100 µM in each case. In addition, the TGI in [13], in [14] and in [15] was > 100 µM throughout.
As for `COc1ccc2c3c1O[C@]1(C)C34CCN(C)C(C2)C42C=C[C@@]1(OC)c1c(O)ccc(O)c12`, the TGI in experiment [1], in experiment [2], in experiment [3], in experiment [4], in experiment [5] and in experiment [6] was > 100 µM each time. The TGI in [7], in experiment [8], in [9], in experiment [10], in experiment [11] and in experiment [12] was > 100 µM each time. Further, the TGI in experiment [13], in experiment [14] and in experiment [15] was > 100 µM in each case.
As for `C/C(=N\NS(=O)(=O)c1ccc(C)cc1)C(CN1CCCCC1)C(c1ccccc1)c1c(O)c2ccccc2oc1=O` (configuration not stated), the TGI in experiment [1], in experiment [16], in [2], in [3], in experiment [4] and in experiment [5] was > 100 µM throughout. Also, the TGI in [6], in experiment [7], in experiment [8], in experiment [9], in experiment [10] and in [11] was > 100 µM each time. The TGI in experiment [12], in experiment [14] and in experiment [15] was > 100 µM in each case.
Consider `O=C(Nc1ccc(Cl)cc1)NS(=O)(=O)c1coc2cc(F)ccc2c1=O`, for which the TGI in experiment [16], in experiment [2], in experiment [6], in experiment [7], in experiment [17] and in experiment [8] was > 100 µM throughout. Also, the TGI in [9], in [10], in [11], in [12], in experiment [13] and in [14] was > 100 µM in each case. Moreover, the TGI in experiment [15] was > 100 µM.
As for `C=Cc1ccc(C)[n+](C[Si](C)(C)O[Si](C)(C)C)c1`, the TGI in [16], in experiment [2], in experiment [3], in [6], in experiment [7] and in experiment [9] was > 100 µM each time. The TGI in experiment [10], in experiment [12], in experiment [13], in experiment [14] and in experiment [15] was > 100 µM throughout.
As for `Cn1cc2ccccc2c1-c1nc(F)nc(F)n1`, the TGI in experiment [1], in experiment [16], in [2], in experiment [3], in [4] and in [5] was > 100 µM throughout. In addition, the TGI in experiment [6], in [7], in experiment [8], in experiment [9], in experiment [11] and in [12] was > 100 µM each time. Moreover, the TGI in experiment [13], in experiment [14] and in [15] was > 100 µM each time.
As to `C[N+](C)(C)CC(=O)N/N=C/c1oc(-c2c(O)ccc3ccccc23)c(-c2c(O)ccc3ccccc23)c1[N+](=O)[O-]`, the TGI worked out at 31.6 µM in experiment [1]; 75.5 µM in experiment [16]; 76.7 µM in experiment [2]; 47.6 µM in [18]; 24.7 µM in experiment [3]; 66.6 µM in [4]. The TGI in experiment [5] stood at 50.9 µM; in experiment [6], 38.9 µM; in [7], 33.3 µM; in [8], 49.3 µM; in experiment [9] it was 60.1 µM; in experiment [10] it was 78.6 µM. For the same compound, the TGI is 26.8 µM in experiment [11]; 29.4 µM in experiment [12]; 49.2 µM in [13]; 61.1 µM in experiment [14]; 47.8 µM in experiment [15].
In the case of `C[C@]12CCC(=O)C=C1CC[C@@H]1[C@@H]2CC[C@]2(C)C(=O)NC(=O)C[C@@H]12`, the TGI in experiment [1], in experiment [16], in [2], in experiment [3], in experiment [4] and in experiment [5] was > 100 µM in each case. Also, the TGI in experiment [6], in [7], in experiment [8], in experiment [9], in [10] and in [11] was > 100 µM throughout. Besides, the TGI in experiment [12], in experiment [13], in experiment [14] and in experiment [15] was > 100 µM throughout.
For the compound `C1=NCCN2CCN(CCN=Cc3ccc(cc3)OCc3cccc(n3)COc3ccc1cc3)CC2`, the TGI in [1], in experiment [2], in experiment [18], in experiment [3], in [4] and in experiment [5] was > 50 µM each time. Besides, the TGI in experiment [6], in [8], in [9], in experiment [10], in [11] and in [12] was > 50 µM in each case. Further, the TGI in [13], in experiment [14] and in experiment [15] was > 50 µM throughout.
In the case of `CCOC(=O)c1cccn1S(=O)(=O)c1cc(Cl)ccc1NC(=O)CC`, the TGI in experiment [1], in experiment [16], in experiment [2], in experiment [18], in experiment [3] and in experiment [4] was > 100 µM throughout. The TGI in [5], in [6], in experiment [7], in [8], in experiment [9] and in experiment [11] was > 100 µM in each case. Besides, the TGI in [12], in [13], in experiment [14] and in [15] was > 100 µM each time.
On to `COC(=O)C(=O)C(C(=O)C(=O)Nc1ccc(F)cc1)c1nc2ccc([N+](=O)[O-])cc2[nH]c1=O` (configuration not stated), for which the TGI in [1], in experiment [16], in [2], in experiment [3], in [4] and in [5] was > 100 µM throughout. For the same compound, the TGI in experiment [6], in experiment [7], in experiment [8], in experiment [9], in experiment [10] and in experiment [11] was > 100 µM in each case. In addition, the TGI in experiment [12], in experiment [13], in experiment [14] and in experiment [15] was > 100 µM in each case.
On to `O=C(c1cccs1)N(C(=S)N1CCN(c2ccccn2)CC1)c1ccccc1`, for which the TGI in experiment [16], in experiment [2], in experiment [3], in [4], in experiment [5] and in [6] was > 100 µM in each case. Further, the TGI in experiment [7], in [8], in experiment [9], in experiment [10], in experiment [11] and in experiment [12] was > 100 µM in each case. Besides, the TGI in [13], in [14] and in experiment [15] was > 100 µM in each case.
In the case of `CCCCOC(=O)C1C2CCC(O2)C1C(=O)OCCCC` (configuration not stated), the TGI is > 100 µM in experiment [1]; > 100 µM in experiment [16]; > 100 µM in [2]; > 65.1 µM in experiment [3]; > 100 µM in experiment [4]; > 100 µM in [5]. Further, the TGI in [6] is > 100 µM; in experiment [7] it was > 60.7 µM; in [8] it was > 47.1 µM; in experiment [9] it was > 100 µM; in [10], > 100 µM; in [11], > 86.8 µM. In addition, the TGI in experiment [12], in [13], in [14] and in [15] was > 100 µM each time.
For the compound `NC(=O)N/N=C(\CC1OC(=O)c2ccccc21)c1ccco1` (configuration not stated), the TGI in experiment [1], in [16], in [2], in experiment [3], in experiment [4] and in experiment [5] was > 100 µM in each case. The TGI in experiment [6], in experiment [7], in experiment [8], in [9], in [11] and in experiment [12] was > 100 µM in each case. The TGI in [13] and in experiment [14] was > 100 µM throughout.
Consider `O=c1[nH]c2cc(Cl)ccc2nc1/C(=N\O)C(O)c1cccc([N+](=O)[O-])c1` (configuration not stated), for which the TGI in experiment [2], in [3], in [4], in experiment [5], in [6] and in [7] was > 100 µM throughout. Also, the TGI in experiment [8], in experiment [9], in [10], in experiment [11], in experiment [12] and in experiment [13] was > 100 µM in each case. Also, in experiment [14], the TGI is > 100 µM.
Consider `O=C1/C(=C/c2cccc(F)c2)CCCc2ccccc21`, for which the TGI in experiment [16] is 31.6 µM; in experiment [2], 34 µM; in experiment [18] it was 30.6 µM; in experiment [3], 29 µM; in experiment [4] it was 62.9 µM; in [5], 29.2 µM. Further, the TGI in experiment [6] was found to be 24.4 µM; in experiment [7], 30.1 µM; in experiment [8], 31.1 µM; in experiment [9], 28.3 µM; in experiment [10] it was 29.3 µM; in experiment [12] it was 31.2 µM. Moreover, the TGI in [13] was determined as 30.2 µM; in experiment [14] it was 41.3 µM; in experiment [15] it was 29.7 µM.
As to `COc1cc2c(oc(=O)c3c4oc([Si](C)(C)C)cc4cc(OC)c23)c2cccc(OCc3ccccc3)c12`, the TGI in experiment [1] was > 100 µM; in [16], 41.2 µM; in experiment [2], > 100 µM; in [3], > 100 µM; in experiment [4], > 92 µM; in experiment [5], > 67.2 µM. For the same compound, the TGI in [6] was > 100 µM; in [7] it was > 100 µM; in experiment [8], > 100 µM; in experiment [9], > 100 µM; in experiment [10], > 71.5 µM; in experiment [11], > 48.2 µM. The TGI in [12] is 56.5 µM; in [13], > 85.9 µM; in experiment [14], 48 µM.
As for `NC1=C(NC(=O)Cc2ccc(F)cc2)C(=O)c2ccccc2C1=O`, the TGI in experiment [16] was > 100 µM; in [2] it was > 100 µM; in [3] it was > 91.1 µM; in [4] it was 98.6 µM; in experiment [5], 64.3 µM; in [6] it was > 100 µM. Further, the TGI in experiment [7] is 31.4 µM; in experiment [8], > 100 µM; in [9], > 100 µM; in experiment [10], 98.5 µM; in experiment [11] it was 57 µM; in [12], > 100 µM. Further, the TGI was > 100 µM in [13], 52.5 µM in experiment [14] and 46.8 µM in [15].
